Experimental data published in paper PMC7044277 (Nature Communications, 2020).
Values joined by “and” are separate entries in the source; they are usually repeats but may differ in a detail not shown here. Identical values can stand only once.

Tests used:
Format in all cases: cell-based
320 non-olfactory GPCRs [1] = target: T1, 320 non-olfactory GPCRs (Homo sapiens, UniProt P35368)
T1 construct: expressed in transfected cells; host or cells: HTLA cells

320 non-olfactory GPCRs [2] = target: 320 non-olfactory GPCRs (Homo sapiens, UniProt P25025)
320 non-olfactory GPCRs [3] = target: T2, 320 non-olfactory GPCRs (Homo sapiens, UniProt Q96LB1); conditions: receptor MRGPRX2; replicate values, Fig_4g
T2 construct: expressed in transfected cells; host or cells: HTLA cells

320 non-olfactory GPCRs [4] = target: T3, 320 non-olfactory GPCRs (Homo sapiens, UniProt P32248)
T3 construct: expressed in transfected cells; host or cells: HTLA cells
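For Fold of Basal in this document: compound tested at 1 µM final concentration.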
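For GPCRome agonism screen response in this document: fold over basal response of each receptor without drug.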

T2 sequence (Q96LB1 whole entry): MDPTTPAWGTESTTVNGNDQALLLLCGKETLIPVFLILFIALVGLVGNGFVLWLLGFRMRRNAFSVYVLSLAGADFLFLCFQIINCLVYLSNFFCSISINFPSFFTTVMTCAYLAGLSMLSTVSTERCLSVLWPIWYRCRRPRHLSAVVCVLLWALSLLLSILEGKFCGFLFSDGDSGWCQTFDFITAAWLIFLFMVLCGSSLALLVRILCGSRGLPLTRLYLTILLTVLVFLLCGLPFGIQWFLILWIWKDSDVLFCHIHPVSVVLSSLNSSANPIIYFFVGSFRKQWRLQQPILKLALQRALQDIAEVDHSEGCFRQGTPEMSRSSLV
T1 sequence (P35368 whole entry): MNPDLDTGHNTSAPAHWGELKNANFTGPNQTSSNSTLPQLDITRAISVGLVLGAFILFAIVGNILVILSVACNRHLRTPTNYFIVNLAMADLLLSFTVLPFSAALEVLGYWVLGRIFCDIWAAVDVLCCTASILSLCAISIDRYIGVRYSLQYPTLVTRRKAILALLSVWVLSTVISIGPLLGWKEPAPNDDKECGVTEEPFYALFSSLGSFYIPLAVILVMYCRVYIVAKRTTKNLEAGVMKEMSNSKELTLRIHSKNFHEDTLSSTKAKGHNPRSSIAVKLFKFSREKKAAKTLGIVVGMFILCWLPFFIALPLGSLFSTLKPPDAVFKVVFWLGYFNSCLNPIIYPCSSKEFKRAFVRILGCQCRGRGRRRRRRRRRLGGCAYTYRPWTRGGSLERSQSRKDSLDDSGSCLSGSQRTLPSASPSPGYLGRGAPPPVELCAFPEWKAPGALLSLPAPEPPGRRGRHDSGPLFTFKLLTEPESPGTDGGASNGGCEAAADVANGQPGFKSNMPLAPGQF
Chain of 320 non-olfactory GPCRs (Homo sapiens, UniProt P25025) (P25025 whole entry): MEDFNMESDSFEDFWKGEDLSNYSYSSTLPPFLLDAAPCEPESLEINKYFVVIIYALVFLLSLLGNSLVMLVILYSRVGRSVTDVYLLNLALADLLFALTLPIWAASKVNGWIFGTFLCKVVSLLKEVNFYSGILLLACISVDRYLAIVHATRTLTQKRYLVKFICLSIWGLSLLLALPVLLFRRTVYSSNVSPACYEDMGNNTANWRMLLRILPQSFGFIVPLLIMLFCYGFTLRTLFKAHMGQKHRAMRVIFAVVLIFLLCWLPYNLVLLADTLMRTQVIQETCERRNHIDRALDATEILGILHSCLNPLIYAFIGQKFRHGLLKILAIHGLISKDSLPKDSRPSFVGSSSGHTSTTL
T3 sequence (P32248 25-378): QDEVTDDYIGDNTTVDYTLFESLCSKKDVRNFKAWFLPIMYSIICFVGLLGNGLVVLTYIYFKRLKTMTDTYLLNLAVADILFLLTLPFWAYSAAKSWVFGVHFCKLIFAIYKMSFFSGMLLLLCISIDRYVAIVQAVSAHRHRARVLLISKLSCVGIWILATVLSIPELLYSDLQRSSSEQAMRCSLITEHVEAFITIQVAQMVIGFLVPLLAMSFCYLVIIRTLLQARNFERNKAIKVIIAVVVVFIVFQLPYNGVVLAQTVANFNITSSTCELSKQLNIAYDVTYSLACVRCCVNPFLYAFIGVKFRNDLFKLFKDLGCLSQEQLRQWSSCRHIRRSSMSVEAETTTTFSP

## CCOc1cccc2cc(C(C)NCC3(O)CCCCC3)oc12 (stereo not shown) [O4LE6]
320 non-olfactory GPCRs [1]
  Fold of Basal: 1.636 and 0.8834 and 1.032 and 1.027
320 non-olfactory GPCRs [2]
  Fold of Basal: 1.166 and 1.131 and 0.9959 and 1.015
320 non-olfactory GPCRs [3]
  GPCRome agonism screen response: 1.268 and 1.306 and 1.279 and 0.9356
320 non-olfactory GPCRs [4]
  Fold of Basal: 1.25 and 0.8767 and 0.9045 and 1.727
